From PMC3776224, “Investigation of acyclic uridine amide and 5′-amido nucleoside analogues as potential inhibitors of the Plasmodium falciparum dUTPase^” (Bioorganic & Medicinal Chemistry, 2013)
Where two headings read alike, the source gives them in different places.

Legend:
recombinant PfdUTPase [1] = biological target: T1, recombinant PfdUTPase (Plasmodium falciparum, UniProt Q8II92); assay: PfdUTPase enzyme inhibition assay (dUTP hydrolysis, Ki); type: biochemical; conditions: for Ki: read-out: Enzyme assay, Ki P.fal
T1 construct: made in house; host or cells: E. coli BL21 (DE3)
T1 sequence (Q8II92 1-173): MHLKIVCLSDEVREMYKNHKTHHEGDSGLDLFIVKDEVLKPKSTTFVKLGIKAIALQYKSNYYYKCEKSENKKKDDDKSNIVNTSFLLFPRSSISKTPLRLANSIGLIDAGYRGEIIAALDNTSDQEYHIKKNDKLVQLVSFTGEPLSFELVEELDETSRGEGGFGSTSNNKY
Experimental: (§1) Biological activity was evaluated by testing all compounds against the recombinant PfdUTPase and human dUTPase (HsdUTPase) in order to determine inhibition constants and selectivity.
Both recombinant P. falciparum and human dUTPases were expressed in E. coli BL21 (DE3) cells which had been transformed with the pET11Pfdut and pET3Hudut (kindly provided by P.O. Nyman, Lund University, Sweden) expression vectors, respectively. For dUTPase purification, the same procedure was used for both the human and the Plasmodium enzymes. Cell pellets from a 2.8 L IPTG-induced culture were resuspended in 70 mL of buffer A (20 mM MES, 50 mM NaCl, 1 mM DTT, pH 5.5) containing a protease inhibitor cocktail. The cells were lysed by sonication, and the cell extract was cleared by centrifugation at 14,000 rpm for 30 min. The supernatant was loaded onto a 40 mL phosphocellulose (Whatman P-11) column at 4 °C and eluted with a 50 mM to 1 M NaCl gradient in buffer A. Protein was further purified by gel filtration chromatography on a Superdex 200 HA 10/30 column at 4 °C. Pooled fractions were concentrated by centrifugation at 4 °C and desalted using a PD-10 column. The enzyme was stored in 10 mM bicine and 5 mM MgCl2, pH 8 at −80 °C.
(§2) Nucleotide hydrolysis was monitored by mixing enzyme and substrate with a rapid kinetic accessory (Hi-Tech Scientific) attached to a spectrophotometer (Cary 50) and connected to a computer for data acquisition and storage as described previously.[17] Protons, released through the hydrolysis of nucleotides, were neutralized by a pH indicator in weak buffered medium with similar pKa and monitored spectrophotometrically at the absorbance peak of the basic form of the indicator. The ratio between the indicator and the buffer concentration was 50:[…], and the absorbance changes were kept within 0.1 units. The indicator/buffer pair used was red cresol/bicine (pH 8, 573 nm). Assay mixes contained 30 nM PfdUTPase, 50 μM dUTP, 5 mM MgCl2, 1 mg/mL BSA, and 100 mM KCl. Vmax and KMapp were calculated by fitting the resulting data to the integrated Michaelis–Menten equation.

[2] = test system: P. falciparum K1, a chloroquine and pyrimethamine resistant strain; conditions: mean of two independent assays, previously reported, read-out: In vitro assays EC50 P.f.; cited from earlier work
[3] = test system: L6 cells (rat skeletal myoblast cells); conditions: previously reported, cited from earlier work; for EC50: cytotoxicity on rat L6 myoblasts, mean of two independent assays, read-out: In vitro assays EC50 L6 cells
[4] = test system: P. falciparum K1, a chloroquine and pyrimethamine resistant strain; assay: In vitro antiplasmodial activity, parasites cultured in erythrocytes; type: cell-based; conditions: Plasmodium falciparum, Erythrocyte, mean of two independent assays, read-out: In vitro assays, EC50 P.fal.
Experimental: as §1
(§3) Activity against P. falciparum K1 strain and cytotoxicity assessment against L6 cells (rat skeletal myoblast cells) was determined as previously reported.[9]

[5] = test system: L6 cells (rat skeletal myoblast cells); assay: Cytotoxicity on rat L6 myoblasts; type: cell-based
Experimental: as §3

recombinant PfdUTPase [6] = biological target: T1, recombinant PfdUTPase; conditions: previously reported; cited from earlier work
[7] = biological target: T2, human dUTPase (HsdUTPase) (Homo sapiens, UniProt P33316); assay: Human dUTPase enzyme inhibition assay (dUTP hydrolysis, Ki); type: biochemical; conditions: recombinant human dUTPase; read-out: Enzyme assay, Ki H. sap.
T2 construct: made in house; host or cells: E. coli BL21 (DE3)
T2 sequence (P33316 112-252 limits assumed): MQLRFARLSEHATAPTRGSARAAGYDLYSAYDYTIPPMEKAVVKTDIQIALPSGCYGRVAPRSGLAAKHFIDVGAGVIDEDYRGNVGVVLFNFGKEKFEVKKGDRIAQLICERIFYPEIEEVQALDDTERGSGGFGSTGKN
Experimental: as §1
Both recombinant P. falciparum and human dUTPases were expressed in E. coli BL21 (DE3) cells which had been transformed with the pET11Pfdut and pET3Hudut (kindly provided by P.O. Nyman, Lund University, Sweden) expression vectors, respectively. For dUTPase purification, the same procedure was used for both the human and the Plasmodium enzymes. Cell pellets from a 2.8 L IPTG-induced culture were resuspended in 70 mL of buffer A (20 mM MES, 50 mM NaCl, 1 mM DTT, pH 5.5) containing a protease inhibitor cocktail. […]
as §2, with “The indicator/buffer pair used was red cresol/bicine (pH 8, 573 nm). Assay mixes contained 30 nM PfdUTPase, 50 μM dUTP, 5 mM MgCl2, 1 mg/mL BSA, and 100 mM KCl. Vmax and KMapp were calculated by fitting the resulting data to the integrated Michaelis–Menten equation.” left out

[8] = biological target: T2, human dUTPase (HsdUTPase); conditions: previously reported; read-out: Enzyme assay Ki HsdUTPase; cited from earlier work
[9] = recombinant PfdUTPase, 50 μM dUTP, pH 8
[10] = cytotoxicity on rat L6 myoblasts, mean of two independent assays, read-out: In vitro assays, EC50 L6 cells (Tox)

Work on `O=C(CCCn1ccc(=O)[nH]c1=O)NC(c1ccccc1)(c1ccccc1)c1ccccc1` [Compound 12, 1-[3-(Tritylaminocarbonyl)propyl]uracil] yielded a Ki (recombinant PfdUTPase [1]; [9]) of 0.2 µM.

In the case of `O=c1ccn(CCCCCCOC(c2ccccc2)(c2ccccc2)c2ccccc2)c(=O)[nH]1` [Compound 1d], the EC50 [2] is given as 2.3 µM and the EC50 [3] is given as 44 µM.

In the case of `O=c1ccn([C@H]2C[C@H](O)[C@@H](CNC(c3ccccc3)c3ccccc3)O2)c(=O)[nH]1` [Compound 2c], the EC50 [3] is given as over 229 µM.

With `O=C(O)CCCn1ccc(=O)[nH]c1=O` [Compound 10, 1-(Carboxypropyl)uracil] the “Enzyme assay, Ki P.fal” value (recombinant PfdUTPase [1]; [9]) was “low affinity”, the Ki (recombinant PfdUTPase [1]; [9]) was over 100 µM and the EC50 [4] was 25 µM. The “Cell selectivity index (SI) [EC50 L6/EC50 P. falciparum]” value [5] was 0.7, the EC50 [5, 10] was 18 µM and the melting point was 174 to 176 °C.

For `O=C(CCCn1ccc(=O)[nH]c1=O)NC(c1ccccc1)c1ccccc1` [Compound 11, 1-[3-(Benzhydrylaminocarbonyl)propyl]uracil], the Ki (recombinant PfdUTPase [1]; [9]) was 0.7 µM.

For `COc1cc([C@@H]2c3cc4c(cc3[C@H](O)[C@H]3COC(=O)[C@H]23)OCO4)cc(OC)c1OC` [podophyllotoxin, reference compound], the EC50 ([5]; Rattus norvegicus, L6, read-out: In vitro assays, EC50 L6 cells (Tox)) was 0.012 µM.

In the case of `O=c1ccn([C@H]2C[C@H](O)[C@@H](COC(c3ccccc3)(c3ccccc3)c3ccccc3)O2)c(=O)[nH]1` [Compound 2a], the “Selectivity index (SI) for enzyme [KiHsdUTPase/KiPfdUTPase]” value (recombinant PfdUTPase [6]) is given as 10, the EC50 [2] is given as 6 µM and the EC50 [3] is given as 192 µM. For the same compound, the “Cell selectivity index (SI) [EC50 L6/EC50 P. falciparum]” value [3] was 32.

In the case of `O=C(NC(c1ccccc1)c1ccccc1)[C@H]1O[C@@H](n2ccc(=O)[nH]c2=O)C[C@@H]1O` [Compound 17, 2′,5′-Dideoxyuridine-5′-N-benzhydryl carboxamide], the “Selectivity index (SI) for enzyme [KiHsdUTPase/KiPfdUTPase]” value (recombinant PfdUTPase [1]) is reported as over 12, the Ki (recombinant PfdUTPase [1]; [9]) is reported as 8.3 µM and the Ki [7] is reported as over 100 µM. It also gave an EC50 [4] of over 5 µM and an EC50 [5, 10] of over 90 µM.

For `O=c1ccn([C@H]2C[C@H](O)[C@@H](CNC(c3ccccc3)(c3ccccc3)c3ccccc3)O2)c(=O)[nH]1` [Compound 2b], the “Selectivity index (SI) for enzyme [KiHsdUTPase/KiPfdUTPase]” value (recombinant PfdUTPase [6]) is given as 232 and the EC50 [2] is given as 4.5 µM.

For `O=c1ccn(CCCCNC(c2ccccc2)(c2ccccc2)c2ccccc2)c(=O)[nH]1` [Compound 1f], the “Selectivity index (SI) for enzyme [KiHsdUTPase/KiPfdUTPase]” value (recombinant PfdUTPase [6]) is listed as over 1111, the Ki [8] is listed as over 1000 µM and the EC50 [2] is listed as 3.8 µM. For the same compound, the EC50 [3] was 33 µM.

In the case of `O=c1ccn(CCCOC(c2ccccc2)(c2ccccc2)c2ccccc2)c(=O)[nH]1` [Compound 1a], the “Selectivity index (SI) for enzyme [KiHsdUTPase/KiPfdUTPase]” value (recombinant PfdUTPase [6]) is listed as 4, the EC50 [2] is listed as 7.5 µM and the EC50 [3] is listed as 34 µM.

With `O=C(NCCCO)C(c1ccccc1)c1ccccc1` [Compound 3, N-(3-Hydroxypropyl)-2,2-diphenylacetamide] the Ki (recombinant PfdUTPase [1]; [9]) was over 100 µM, the EC50 [4] was 19 µM and the “Cell selectivity index (SI) [EC50 L6/EC50 P. falciparum]” value [5] was 1.0. The EC50 [5, 10] was 18 µM.

For `O=c1ccn(CCCCCOC(c2ccccc2)(c2ccccc2)c2ccccc2)c(=O)[nH]1` [Compound 1c], the Ki [8] is listed as over 1000 µM, the EC50 [2] is listed as 1.1 µM and the EC50 [3] is listed as 24 µM.

With `O=C(NCCCO)C(c1ccccc1)(c1ccccc1)c1ccccc1` [Compound 4, N-(3-Hydroxypropyl)-2,2,2-triphenylacetamide] the Ki (recombinant PfdUTPase [1]; [9]) was 1000 µM, the EC50 [4] was 9.8 µM and the “Cell selectivity index (SI) [EC50 L6/EC50 P. falciparum]” value [5] was 1.9. For the same compound, the EC50 [5, 10] was 19 µM.

In the case of `O=c1ccn(CCCCCCNC(c2ccccc2)(c2ccccc2)c2ccccc2)c(=O)[nH]1` [Compound 1h], the “Selectivity index (SI) for enzyme [KiHsdUTPase/KiPfdUTPase]” value (recombinant PfdUTPase [6]) is given as over 556, the Ki [8] is given as over 1000 µM and the EC50 [2] is given as 1.1 µM. For the same compound, the EC50 [3] was 40 µM.

For `O=c1ccn(CCCNC(c2ccccc2)(c2ccccc2)c2ccccc2)c(=O)[nH]1` [Compound 1e], the EC50 [2] is listed as 4.4 µM and the EC50 [3] is listed as 107 µM.

With `O=C(c1ccccc1)n1c(=O)ccn(CCCNC(=O)C(c2ccccc2)(c2ccccc2)c2ccccc2)c1=O` [Compound 6, 3-Benzoyl-(1-(3-(triphenylacetylamino)propyl)uracil)] the Ki (recombinant PfdUTPase [1]; [9]) was over 100 µM, the EC50 [4] was 6.7 µM and the “Cell selectivity index (SI) [EC50 L6/EC50 P. falciparum]” value [5] was 1.4. For the same compound, the EC50 [5, 10] was 9 µM.

In the case of `O=C(NCCCn1ccc(=O)[nH]c1=O)C(c1ccccc1)c1ccccc1` [Compound 7, 1-(3-(Diphenylacetylamino)propyl)uracil], the “Selectivity index (SI) for enzyme [KiHsdUTPase/KiPfdUTPase]” value (recombinant PfdUTPase [1]) is reported as 26, the Ki (recombinant PfdUTPase [1]; [9]) is reported as 11 µM and the Ki [7] is reported as 286 µM. The EC50 [4] was 14 µM, the “Cell selectivity index (SI) [EC50 L6/EC50 P. falciparum]” value [5] was 1.3 and the EC50 [5, 10] was 18 µM. The melting point was 145 to 147 °C.

In the case of `O=C(NCCCn1ccc(=O)[nH]c1=O)C(c1ccccc1)(c1ccccc1)c1ccccc1` [Compound 8, 1-(3-(Triphenylacetylamino)propyl)uracil], the Ki (recombinant PfdUTPase [1]; [9]) is reported as 6.3 µM and the melting point is reported as 154 to 156 °C.

In the case of `O=c1ccn(CCCCCNC(c2ccccc2)(c2ccccc2)c2ccccc2)c(=O)[nH]1` [Compound 1g], the Ki [8] is listed as over 1000 µM, the EC50 [2] is listed as 2.2 µM and the EC50 [3] is listed as 39 µM.

For `O=c1ccn(CCCCOC(c2ccccc2)(c2ccccc2)c2ccccc2)c(=O)[nH]1` [Compound 1b], the Ki [8] is given as over 1000 µM, the EC50 [2] is given as 4.9 µM and the EC50 [3] is given as 42 µM.
